Key:
Hec1-Nek2 interaction = molecular target: T1, Hec1-Nek2 interaction (Homo sapiens, UniProt O14777); assay: Co-immunoprecipitation analysis of Hec1-Nek2 interaction in K562 cells; format: cell-based; settings: K562 cells treated 8 or 16 hours
T1 construct: endogenous in cells; host or cells: K562
T1 sequence (O14777 1-642): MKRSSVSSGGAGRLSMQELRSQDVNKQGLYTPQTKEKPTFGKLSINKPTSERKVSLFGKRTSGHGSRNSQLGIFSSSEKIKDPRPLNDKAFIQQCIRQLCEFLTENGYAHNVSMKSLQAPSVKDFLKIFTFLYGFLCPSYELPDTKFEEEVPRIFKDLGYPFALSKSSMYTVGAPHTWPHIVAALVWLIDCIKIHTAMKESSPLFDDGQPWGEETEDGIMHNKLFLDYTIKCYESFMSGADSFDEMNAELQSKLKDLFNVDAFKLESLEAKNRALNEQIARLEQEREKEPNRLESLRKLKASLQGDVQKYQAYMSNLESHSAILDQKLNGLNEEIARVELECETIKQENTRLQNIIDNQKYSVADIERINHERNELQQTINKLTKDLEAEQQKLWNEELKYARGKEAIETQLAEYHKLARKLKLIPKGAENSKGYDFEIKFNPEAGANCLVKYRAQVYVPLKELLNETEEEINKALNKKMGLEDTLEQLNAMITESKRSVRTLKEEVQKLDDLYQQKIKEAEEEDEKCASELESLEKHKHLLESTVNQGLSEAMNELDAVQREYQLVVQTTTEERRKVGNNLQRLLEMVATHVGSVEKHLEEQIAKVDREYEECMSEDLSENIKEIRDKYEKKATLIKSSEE
Procedure: Co-Immunoprecipitation Analysis: Co-immunoprecipitation (Co-IP)/Western blotting assays were performed to assess the effects of Hec1 inhibitory compounds on Hec1-Nek2 interaction. K562 cells were treated with Hec1 inhibitory compounds as indicated. After harvesting and washing once with cold PBS, cells were lysed on ice in lysis buffer (50 mM Tris (pH 7.5), 250 mM NaCl, 5 mM EDTA (pH 8.0), 0.1% NP-40, 1 mM PMSF, 50 mM NaF, and protease inhibitor cocktail (P/N P8340 Sigma Aldrich, St. Louis Mo. USA) for 30 min. Lysates were then centrifuged at 12,000 rpm at 4° C. for 20 minutes. Input supernatant was incubated in the presence of anti Nek2 antibody (rabbit anti-Nek2, Rockland Immunochemicals, Gilbertsville, Pa. 19525 USA) or IgG control antibody for 2 h at 4° C., followed by the addition protein G coupled to agarose beads (GE Healthcare, Anaheim Calif. 92805 USA). After mixing for 1 h at 4° C., the agarose beads were centrifuged at 12,000 rpm at 4° C. for 20 seconds. The beads were then washed 5 times with cold Co-IP buffer, boiled in SDS-PAGE sample buffer followed by SDS-PAGE. The presence of Hec1 and Nek2 was detected by Western blotting with mouse monoclonal antibodies directed to Hec1 (GeneTex, Inc., Irvine Calif. 92606 USA) and Nek2 (BD Biosciences, San Jose Calif. 95131 USA). […]

MDA-MB-468 = assay: Antiproliferation assay (MTS), MDA-MB-468 cells; format: cell-based; settings: Homo sapiens, MDA-MB-468, 96 h, Table 1, read-out: Antiproliferative IC50 MDA-MB-468
In short: (§1)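 Cells seeded after overnight attachment were treated in triplicate for 96 h at 37 °C, 5% CO2, final DMSO below 1%. Viability read by MTS absorbance; concentration-response curves fitted by linear regression against DMSO controls.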

MDA-MB-231 = assay: Antiproliferation assay (MTS), MDA-MB-231 cells; format: cell-based; settings: Homo sapiens, MDA-MB-231, 96 h, read-out: Antiproliferative IC50 MDA-MB-231, Table 1
In short: as §1

Huh-7 xenograft = assay: Mouse xenograft study, Huh-7 liver cancer; format: in vivo; settings: Huh-7 liver cancer xenograft, nude mice
cyclin B1 and cyclin D1 = assay: Immunoblot of cyclin B1 and cyclin D1; format: cell-based; settings: 1 μM
Procedure: Immunoblot Analysis: For immunoblotting experiments, cells were plated in a 6-well culture plate and cultured overnight. Cells were incubated with the test compounds for the indicated time and whole cell lysate was harvested by adding 1×SDS-PAGE Sample Buffer (62.5 mM Tris-HCl (pH 6.8 at 25° C.), 2% w/v SDS, 10% glycerol, 50 mM DTT, and 0.01% w/v bromophenol blue or phenol red). Proteins were separated by SDS-PAGE electrophoresis and transferred to PVDF membrane. Protein expression was immunoblotted using various primary antibodies and detected using Immobilon Western Chemiluminescent HRP Substrate (Millipore, Billerica Mass. 01821 USA). Antibodies used include anti-Cleaved Caspase3, (Rabbit, Cell Signaling Technology, Danvers Mass. 01923 USA); anti-PARP (Rabbit, Cell Signaling Technology, Danvers Mass. 01923 USA); anti-MCL-1 (mouse, BD Biosciences, San Jose Calif. 95131 USA); anti-XIAP (rabbit, Cell Signaling Technology, Danvers Mass. 01923 USA); anti-Bcl-2 (mouse, Santa Cruz Biotechnology, Santa Cruz Calif. 95060); anti-Cyclin BI (mouse, BD Biosciences, San Jose Calif. 95131 USA); anti-Cyclin D1 (mouse, Santa Cruz Biotechnology, Santa Cruz Calif. 95060); Anti-Nek2 (mouse, BD Biosciences, San Jose Calif. 95131 USA); Anti-HEC1, (rabbit, GeneTex, Inc., Irvine Calif. 92606 USA); and anti-actin (mouse, Millipore, Billerica Mass. 01821 USA). […]

IC50 (MDA-MB-468): 19.1 nM
IC50 (MDA-MB-231): 35.1 nM
SMILES: COCCOc1cnc(Sc2cc(C)c(-c3csc(NC(=O)c4ccncc4)n3)c(C)c2)cn1 [Compound 27, N-(4-{4-(5-(2-methoxyethoxy)pyrazin-2-ylthio)-2,6-dimethylphenyl}thiazol-2-yl)isonicotinamide]
Hec1/Nek2 interaction (Hec1 in Nek2 immunoprecipitates) (Hec1-Nek2 interaction): significantly disrupted Hec1/Nek2 interaction
xenograft tumor outgrowth (Huh-7 xenograft): inhibition of xenograft tumor outgrowth
cyclin B1 and cyclin D1 levels (cyclin B1 and cyclin D1): cyclin BI and cyclin D degradation
